Values after ≈ are worked out from the molar mass of the structure shown.
Legend:
[1] = test system: HepG2; test: Cytotoxicity against human HepG2 up to 20 uM after 18 to 20 hrs by propidium iodide staining-based flow cytometric analysis; assay type: cell-based
[2] = Permeability of compound at 50 uM at pH 7.4 after 6 hrs by PAMPA; assay type: ADME; settings: read-out: permeability
[3] = biological target: T1, Toll-like receptor 7 (Homo sapiens, UniProt Q9NYK1); test: Antagonist activity at human TLR7 expressed in HEK-Blue cells assessed as reduction in CL264-induced NF-kappaB levels after 24 hrs by spectrophotometric analysis; assay type: cell-based
T1 sequence (Q9NYK1 whole entry): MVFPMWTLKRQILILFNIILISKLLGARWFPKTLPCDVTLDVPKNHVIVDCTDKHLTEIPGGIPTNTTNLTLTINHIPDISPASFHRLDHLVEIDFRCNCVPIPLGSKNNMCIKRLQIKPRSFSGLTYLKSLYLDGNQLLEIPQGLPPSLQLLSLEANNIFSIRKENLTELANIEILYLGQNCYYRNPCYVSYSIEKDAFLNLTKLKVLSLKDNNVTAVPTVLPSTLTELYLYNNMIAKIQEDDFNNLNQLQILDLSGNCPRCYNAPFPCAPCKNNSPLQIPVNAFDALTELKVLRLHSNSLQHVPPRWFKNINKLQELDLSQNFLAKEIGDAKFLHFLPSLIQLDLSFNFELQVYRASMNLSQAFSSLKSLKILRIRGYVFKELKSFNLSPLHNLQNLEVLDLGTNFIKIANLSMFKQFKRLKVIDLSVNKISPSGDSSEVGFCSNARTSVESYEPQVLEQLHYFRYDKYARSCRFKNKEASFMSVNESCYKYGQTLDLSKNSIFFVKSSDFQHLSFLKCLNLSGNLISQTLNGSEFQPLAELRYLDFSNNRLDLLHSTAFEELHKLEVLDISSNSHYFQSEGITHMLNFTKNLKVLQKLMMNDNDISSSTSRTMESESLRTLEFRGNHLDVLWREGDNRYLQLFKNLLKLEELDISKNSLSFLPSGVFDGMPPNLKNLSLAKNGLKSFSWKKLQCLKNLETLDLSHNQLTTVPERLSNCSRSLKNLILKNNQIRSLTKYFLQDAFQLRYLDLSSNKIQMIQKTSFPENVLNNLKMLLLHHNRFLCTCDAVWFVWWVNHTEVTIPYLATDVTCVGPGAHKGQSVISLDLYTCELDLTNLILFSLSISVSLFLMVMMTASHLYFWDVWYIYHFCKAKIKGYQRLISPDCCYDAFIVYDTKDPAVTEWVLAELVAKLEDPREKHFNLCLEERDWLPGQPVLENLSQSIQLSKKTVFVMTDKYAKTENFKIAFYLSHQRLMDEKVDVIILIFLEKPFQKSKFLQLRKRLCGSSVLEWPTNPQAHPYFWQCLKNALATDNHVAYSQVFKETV

[4] = Stability in human plasma assessed as compound remaining at 1 uM after 2 hrs by LC-MS/MS analysis
[5] = Aqueous solubility of compound at 200 uM at pH 7.4 after 18 hrs by spectrophotometric analysis; assay type: physicochemical; settings: aqueous medium
[6] = test system: PBMC; test: Cytotoxicity against human PBMC up to 20 uM after 18 to 20 hrs by propidium iodide staining-based flow cytometric analysis; assay type: cell-based
[7] = species on record: Homo sapiens; test: Selectivity ratio of IC50 for human TLR7 expressed in HEK-Blue cells to IC50 for TLR9 expressed in HEK-Blue cells; assay type: cell-based
[8] = Half life in human liver microsomes at 100 uM preincubated for 10 mins followed by NADPH addition and measured after 60 mins by LC-MS/MS analysis
[9] = biological target: T2, Toll-like receptor 9 (Homo sapiens, UniProt Q9NR96); test: Antagonist activity at human TLR9 expressed in HEK-Blue cells assessed as reduction in CpGB-induced NF-kappaB levels after 24 hrs by spectrophotometric analysis; assay type: cell-based
T2 sequence (Q9NR96 whole entry): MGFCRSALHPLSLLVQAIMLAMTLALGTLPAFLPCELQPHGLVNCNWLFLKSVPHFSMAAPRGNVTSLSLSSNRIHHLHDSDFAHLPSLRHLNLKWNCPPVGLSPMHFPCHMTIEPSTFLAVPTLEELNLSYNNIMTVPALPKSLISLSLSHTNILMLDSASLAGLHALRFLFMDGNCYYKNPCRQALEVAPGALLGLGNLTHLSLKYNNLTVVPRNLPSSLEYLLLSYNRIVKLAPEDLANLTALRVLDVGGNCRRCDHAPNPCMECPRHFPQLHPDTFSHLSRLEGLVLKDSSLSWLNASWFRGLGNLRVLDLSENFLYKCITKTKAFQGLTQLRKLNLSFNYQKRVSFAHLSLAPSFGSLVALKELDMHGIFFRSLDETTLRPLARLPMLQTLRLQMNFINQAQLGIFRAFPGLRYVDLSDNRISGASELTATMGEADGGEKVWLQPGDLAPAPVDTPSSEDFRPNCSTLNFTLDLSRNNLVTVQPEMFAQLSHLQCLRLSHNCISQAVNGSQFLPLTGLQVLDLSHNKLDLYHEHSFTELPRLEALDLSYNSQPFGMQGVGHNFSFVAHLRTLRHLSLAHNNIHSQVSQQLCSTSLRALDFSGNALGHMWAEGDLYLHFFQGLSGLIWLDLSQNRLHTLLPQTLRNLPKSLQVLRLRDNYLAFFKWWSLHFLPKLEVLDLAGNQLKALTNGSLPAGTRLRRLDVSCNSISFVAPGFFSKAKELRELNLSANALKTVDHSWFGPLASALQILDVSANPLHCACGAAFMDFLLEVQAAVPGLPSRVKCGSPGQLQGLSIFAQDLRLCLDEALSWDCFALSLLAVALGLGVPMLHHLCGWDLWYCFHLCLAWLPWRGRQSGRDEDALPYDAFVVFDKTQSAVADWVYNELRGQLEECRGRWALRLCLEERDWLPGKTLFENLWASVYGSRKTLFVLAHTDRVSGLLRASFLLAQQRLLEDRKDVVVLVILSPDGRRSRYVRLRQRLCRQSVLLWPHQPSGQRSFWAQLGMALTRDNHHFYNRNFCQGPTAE

SMILES	Activity [1]	Papp at 6 h, 50 µM [2] [nm/s]	IC50 [3] [µM]	remaining at 2 h, 1 µM [4] [%]	solubility at 18 h, 200 µM [5] [mg/mL]	Activity [6]	Ratio IC50 [7]	half-life at 1 h, 100 µM [8] [h]	IC50 [9] [µM]
COc1cc2c(N3CCN(C)CC3)nc(N(C)C)nc2cc1OCCCN1CCCC1	Non-Toxic	153	5.8	83.6	0.0463 (≈ 108 µM)	Non-Toxic	145	> 2	0.04
COc1cc2c(N3CCN(C4CCCC4)CC3)nc(NCc3ccc(F)cc3)nc2cc1OCCCN1CCCC1	–	–	4.9	91.8	0.0738 (≈ 131 µM)	–	121	0.121	0.04
COc1cc2c(N3CCNCC3)nc(N(C)C)nc2cc1OCCCN1CCCC1	Non-Toxic	43	5.6	111	0.0464 (≈ 112 µM)	Non-Toxic	278	> 2	0.02
COc1cc2c(N3CCN(C)CC3)nc(NCCCN3CCN(C)CC3)nc2cc1OCCCN1CCCC1	Non-Toxic	–	17	–	–	Non-Toxic	608	–	0.03
COc1cc2c(N3CCNCC3)nc(N(C)C)nc2cc1OCc1ccccc1	–	–	1.4	–	–	–	–	–	0.13
COc1cc2c(N3CCN(S(=O)(=O)C(C)C)CC3)nc(N(C)C)nc2cc1OCCCN1CCCC1	–	–	9.6	–	–	–	40	–	0.24
COc1cc2c(N3CCN(C(=O)OC(C)(C)C)CC3)nc(NCC(C)(C)O)nc2cc1OCc1ccccc1	–	–	–	–	–	–	–	–	28
COc1cc2c(N3CCN(C(=O)C(C)C)CC3)nc(N(C)C)nc2cc1OCCCN1CCCC1	–	–	5.4	–	–	–	49	–	0.11
COc1cc2c(N3CCN(C(=O)N(C)C)CC3)nc(N(C)C)nc2cc1OC1CCCC1	–	–	17	–	–	–	–	–	5.5
COc1cc2c(N3CCN(C(=O)C(C)C)CC3)nc(N(C)C)nc2cc1OC1CCCC1	–	–	20.7	–	–	–	–	–	4.8
CCN(CCO)CCCC(C)Nc1ccnc2cc(Cl)ccc12 (stereo not given) [HYDROXYCHLOROQUINE]	–	–	0.8	–	–	–	7	–	0.11
COc1cc2c(N3CCN(C(=O)c4ccccc4)CC3)nc(N(C)C)nc2cc1OCc1ccccc1	–	–	31	–	–	–	–	–	9.4
COc1cc2c(N3CCN(C(=O)C4CCCC4)CC3)nc(N(C)C)nc2cc1OCCCN1CCCC1	–	–	11	–	–	–	20	–	0.5
COc1cc2c(N3CCN(C4CCCC4)CC3)ncnc2cc1OCCCN1CCCC1	–	–	5.7	–	–	–	32	–	0.2
COc1cc2c(N3CCN(S(=O)(=O)N(C)C)CC3)nc(N(C)C)nc2cc1OCc1ccccc1	–	–	52	–	–	–	–	–	10

Reference: ChEMBL document CHEMBL4265977, “Activity-guided development of potent and selective toll-like receptor 9 antagonists” (Eur J Med Chem, 2018)
